Test results taken from ChEMBL document CHEMBL1208782, “Synthesis and pharmacological validation of a novel series of non-steroidal FXR agonists” (Bioorg Med Chem Lett, 2010).

Key:
Type in all cases: functional, cell-based
[1] = target: T1, Thyroid hormone receptor alpha (Homo sapiens) (UniProt P10827); test: Agonist activity at TRalpha-LBD expressed in HEK293 cells assessed as Gal4-DBD interaction by cellular mammalian one hybrid assay relative to thyroid
T1 sequence (whole entry): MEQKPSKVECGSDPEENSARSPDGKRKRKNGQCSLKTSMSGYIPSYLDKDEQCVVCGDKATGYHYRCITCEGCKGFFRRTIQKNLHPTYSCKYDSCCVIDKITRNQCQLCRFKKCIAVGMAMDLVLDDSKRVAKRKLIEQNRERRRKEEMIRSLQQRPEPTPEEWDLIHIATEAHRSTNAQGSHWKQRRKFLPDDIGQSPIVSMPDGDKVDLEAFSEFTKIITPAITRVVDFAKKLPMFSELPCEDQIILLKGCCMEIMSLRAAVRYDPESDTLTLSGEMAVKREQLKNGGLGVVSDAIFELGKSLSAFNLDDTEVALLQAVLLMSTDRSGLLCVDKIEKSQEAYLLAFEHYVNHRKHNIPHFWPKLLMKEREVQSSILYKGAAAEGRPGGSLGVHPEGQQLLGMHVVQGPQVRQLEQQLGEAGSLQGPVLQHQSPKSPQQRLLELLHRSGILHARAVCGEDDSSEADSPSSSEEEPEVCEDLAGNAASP

[2] = target: T2, Androgen receptor (Homo sapiens) (UniProt P10275); test: Agonist activity at androgen receptor-LBD expressed in HEK293 cells assessed as Gal4-DBD interaction by cellular mammalian one hybrid assay relative to androgen
T2 sequence (whole entry): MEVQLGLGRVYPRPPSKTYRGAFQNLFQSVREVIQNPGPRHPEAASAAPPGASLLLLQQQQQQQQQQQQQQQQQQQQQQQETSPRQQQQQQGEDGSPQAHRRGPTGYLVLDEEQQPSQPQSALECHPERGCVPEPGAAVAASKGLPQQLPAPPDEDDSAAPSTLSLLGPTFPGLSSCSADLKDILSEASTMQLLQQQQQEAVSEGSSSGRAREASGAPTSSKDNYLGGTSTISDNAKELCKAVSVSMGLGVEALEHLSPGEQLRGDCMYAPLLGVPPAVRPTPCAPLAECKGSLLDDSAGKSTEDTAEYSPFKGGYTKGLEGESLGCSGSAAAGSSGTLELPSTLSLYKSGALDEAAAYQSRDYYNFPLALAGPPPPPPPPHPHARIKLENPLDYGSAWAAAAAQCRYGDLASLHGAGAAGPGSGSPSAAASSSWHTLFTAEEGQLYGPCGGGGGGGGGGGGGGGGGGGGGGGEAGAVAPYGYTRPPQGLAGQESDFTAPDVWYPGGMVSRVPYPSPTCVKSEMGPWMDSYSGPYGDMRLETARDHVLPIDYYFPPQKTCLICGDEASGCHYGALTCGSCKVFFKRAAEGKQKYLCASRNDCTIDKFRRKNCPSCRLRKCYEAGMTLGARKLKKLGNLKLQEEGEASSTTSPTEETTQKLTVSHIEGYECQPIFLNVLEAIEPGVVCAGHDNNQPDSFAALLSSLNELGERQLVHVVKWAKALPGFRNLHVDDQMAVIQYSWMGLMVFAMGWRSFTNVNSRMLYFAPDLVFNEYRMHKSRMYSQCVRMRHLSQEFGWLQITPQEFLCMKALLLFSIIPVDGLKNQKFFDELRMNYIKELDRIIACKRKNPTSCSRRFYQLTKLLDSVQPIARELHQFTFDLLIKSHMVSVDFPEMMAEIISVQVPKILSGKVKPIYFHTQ

[3] = target: T3, Progesterone receptor (Homo sapiens) (UniProt P06401); test: Agonist activity at progesterone receptor-LBD expressed in HEK293 cells assessed as Gal4-DBD interaction by cellular mammalian one hybrid assay relative to progesterone
T3 sequence (whole entry): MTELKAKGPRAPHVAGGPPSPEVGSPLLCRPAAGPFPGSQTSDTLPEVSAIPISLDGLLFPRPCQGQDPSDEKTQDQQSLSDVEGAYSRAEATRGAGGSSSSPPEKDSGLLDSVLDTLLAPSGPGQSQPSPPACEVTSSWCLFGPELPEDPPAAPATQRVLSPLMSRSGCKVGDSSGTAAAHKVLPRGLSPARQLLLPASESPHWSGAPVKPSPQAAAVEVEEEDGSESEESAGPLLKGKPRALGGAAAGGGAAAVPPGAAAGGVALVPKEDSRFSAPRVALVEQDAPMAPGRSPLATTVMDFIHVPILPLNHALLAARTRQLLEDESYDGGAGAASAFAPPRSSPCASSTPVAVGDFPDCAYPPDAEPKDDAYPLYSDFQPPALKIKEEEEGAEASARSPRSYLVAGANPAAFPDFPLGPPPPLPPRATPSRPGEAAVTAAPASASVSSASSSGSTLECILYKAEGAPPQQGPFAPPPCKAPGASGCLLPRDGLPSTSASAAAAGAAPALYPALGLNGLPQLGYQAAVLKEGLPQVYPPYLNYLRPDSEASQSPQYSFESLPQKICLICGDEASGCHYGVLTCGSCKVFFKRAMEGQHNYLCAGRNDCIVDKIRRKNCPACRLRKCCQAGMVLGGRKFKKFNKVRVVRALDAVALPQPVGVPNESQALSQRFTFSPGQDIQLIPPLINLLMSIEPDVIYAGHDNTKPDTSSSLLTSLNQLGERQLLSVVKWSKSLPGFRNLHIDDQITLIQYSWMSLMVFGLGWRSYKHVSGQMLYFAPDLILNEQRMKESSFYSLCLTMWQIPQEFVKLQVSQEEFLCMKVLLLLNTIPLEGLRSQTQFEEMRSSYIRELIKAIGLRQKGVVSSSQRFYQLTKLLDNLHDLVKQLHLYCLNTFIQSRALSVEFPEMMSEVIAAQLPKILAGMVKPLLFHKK

[4] = target: T4, Retinoic acid receptor beta (Homo sapiens) (UniProt P10826); test: Agonist activity at RARbeta-LBD expressed in HEK293 cells assessed as Gal4-DBD interaction by cellular mammalian one hybrid assay relative to retinoic acid
T4 sequence (whole entry): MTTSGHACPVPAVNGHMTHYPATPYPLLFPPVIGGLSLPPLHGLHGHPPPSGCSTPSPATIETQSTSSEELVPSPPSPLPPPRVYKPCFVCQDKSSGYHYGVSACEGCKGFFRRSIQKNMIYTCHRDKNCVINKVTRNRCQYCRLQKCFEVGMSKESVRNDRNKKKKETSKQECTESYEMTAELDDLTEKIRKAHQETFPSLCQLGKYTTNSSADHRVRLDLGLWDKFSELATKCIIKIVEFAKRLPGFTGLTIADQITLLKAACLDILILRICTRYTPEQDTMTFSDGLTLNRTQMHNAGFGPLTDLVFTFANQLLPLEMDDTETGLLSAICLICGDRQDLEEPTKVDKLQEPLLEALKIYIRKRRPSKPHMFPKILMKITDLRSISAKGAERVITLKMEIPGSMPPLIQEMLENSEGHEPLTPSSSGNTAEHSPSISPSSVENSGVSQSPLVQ

Measured: Efficacy

CN(Cc1cccc(C(=O)O)c1)c1ccc(OCc2c(-c3c(Cl)cccc3Cl)noc2C2CC2)nc1C(F)(F)F
0%: [1] | [2] | [3] | [4]

CN(Cc1ccc(C(=O)O)cc1)c1ccc(OCc2c(-c3c(Cl)cccc3Cl)noc2C2CC2)nc1C(F)(F)F
0%: [1] | [2] | [3] | [4]

CC(C)c1onc(-c2c(Cl)cccc2Cl)c1COc1ccc(N(C)Cc2ccc(C(=O)O)cc2)c(C(F)(F)F)n1
0%: [1] | [2] | [3] | [4]
